# Assay: Solubility (shaking flask)
# Format: physicochemical
# Details: phosphate buffer solution (PBS), aqueous buffer, thermodynamic from solid; PBS; 37° C. for 24 hours
# Procedure: The solubility for certain compounds were determined using the following protocol and procedure. 1) The solution, sterile water or phosphate buffer solution (PBS), was added to the test compound tube to make the final concentration 10 mg/mL. 2) The sample tube was vortexed and incubated at 37° C. for 24 hours. During the incubation period, the sample tube was vortexed several times. 3) After the incubation, vortex the tube and centrifuge the tube at 13,000 rpm for 10 mins using an Eppendorf Centrifuge Model 5415C. If the solution was still cloudy, centrifuge it for longer until a clear supernatant was achieved. 4) The supernatant was diluted to 1×, 10× and 100× in 50% ACN in water. 5) A six point standard curve was prepared separately to make the final concentrations of 1 μg/mL, 5 μg/mL, 10 μg/mL, 20 μg/mL, 40 μg/mL and 60 μg/mL. 6) Samples were quantified using an HPLC with UV detector. 7) From the three concentrations of 1×, 10× and 100× supernatant, choose the value, which was fallen into the standard curve range (1 ug/mL-60 ug/mL), as the final result. If all the results were out of the curve range, adjust using a dilution factor to make the value within the curve range.
row,Structure (SMILES),solubility at 24 h
1,"CC(=O)OCOC(=O)NC1=CC(=O)Nc2ncnc3c2c1cn3[C@@H]1O[C@H](COC(C)=O)C(OC(C)=O)[C@@]1(C)O (stereo in doubt) [Compound 120, Acetic acid 3-acetoxy-5-(9-acetoxymethoxycarbonylamino-7-oxo-6,7-dihydro-2,3,5,6-tetraaza-benzo[cd]azulen-2-yl)-4-hydroxy-4-methyl-tetrahydro-furan-2-ylmethylester]",60 µg/mL
2,"CCC(=O)OC[C@H]1O[C@@H](n2cc3c4c(ncnc42)NC(=O)C=C3N)C(C)(O)[C@@H]1O (stereo in doubt) [Compound 131, Propionic acid 5-(9-amino-7-oxo-6,7-dihydro-2,3,5,6-tetraaza-benzo[cd]azulen-2-yl)-3,4-dihydroxy-4-methyl-tetrahydro-furan-2-ylmethylester]",8060 µg/mL
3,"CC(=O)OCOC(=O)NC1=CC(=O)Nc2ncnc3c2c1cn3[C@@H]1O[C@H](COC(=O)C(C)C)[C@@H](OC(=O)C(C)C)[C@@]1(C)O [Compound 111, Isobutyric acid 5-(9-acetoxymethoxycarbonylamino-7-oxo-6,7-dihydro-2,3,5,6-tetraaza-benzo[cd]azulen-2-yl)-4-hydroxy-2-isobutyryloxymethyl-4-methyl-tetrahydro-furan-3-yl ester]",2 µg/mL
4,"CC(=O)OC1(C)[C@H](OC(=O)C(C)C)[C@@H](COC(=O)C(C)C)O[C@H]1n1cc2c3c(ncnc31)NC(=O)C=C2N (stereo in doubt) [Compound 133, Isobutyric acid 4-acetoxy-5-(9-amino-7-oxo-6,7-dihydro-2,3,5,6-tetraaza-benzo[cd]azulen-2-yl)-3-isobutyryloxy-4-methyl-tetrahydro-furan-2-ylmethyl ester]",17 µg/mL
5,"CC(=O)OC[C@H]1O[C@@H](n2cc3c4c(ncnc42)NC(=O)C=C3NC(=O)OCOC(=O)C(C)C)C(C)(O)[C@@H]1OC(C)=O (stereo in doubt) [Compound 118, Isobutyric acid 2-(4-acetoxy-5-acetoxymethyl-3-hydroxy-3-methyl-tetrahydro-furan-2-yl)-7-oxo-6,7-dihydro-2H-2,3,5,6-tetraaza-benzo[cd]azulen-9-ylcarbamoyloxymethyl ester]",60 µg/mL
6,"CCC(=O)OC[C@H]1O[C@@H](n2cc3c4c(ncnc42)NC(=O)C=C3N)C(C)(OC(=O)CC)[C@@H]1OC(=O)CC (stereo partly shown) [Compound 127, Propionic acid 5-(9-amino-7-oxo-6,7-dihydro-2,3,5,6-tetraaza-benzo[cd]azulen-2-yl)-4-methyl-3,4-bis-propionyloxy-tetrahydro-furan-2-ylmethyl ester]",133 µg/mL
7,"CCC(=O)OC[C@H]1O[C@@H](n2cc3c4c(ncnc42)NC(=O)C=C3N)C(C)(O)[C@@H]1OC(=O)CC (stereo in doubt) [Compound 130, Propionic acid 5-(9-amino-7-oxo-6,7-dihydro-2,3,5,6-tetraaza-benzo[cd]azulen-2-yl)-4-hydroxy-4-methyl-3-propionyloxy-tetrahydro-furan-2-ylmethyl ester]",850 µg/mL
8,"CC(=O)O[C@@H]1[C@@H](CO)O[C@@H](n2cc3c4c(ncnc42)NC(=O)C=C3NC(=O)OCOC(=O)C(C)C)[C@]1(C)O [Compound 112, Isobutyric acid 2-(4-acetoxy-3-hydroxy-5-hydroxymethyl-3-methyl-tetrahydro-furan-2-yl)-7-oxo-6,7-dihydro-2H-2,3,5,6-tetraaza-benzo[cd]azulen-9-ylcarbamoyloxymethyl ester]",80 µg/mL

# Further lines, results first:
row,solubility at 24 h,Structure (SMILES)
1,8160 µg/mL,"CC(C)C(=O)OCOC(=O)NC1=CC(=O)Nc2ncnc3c2c1cn3[C@@H]1O[C@H](CO)[C@@H](OC(=O)[C@@H](N)C(C)C)[C@]1(C)O [Compound 110, 2-Amino-3-methyl-butyric acid 4-hydroxy-2-hydroxymethyl-5-(9-isobutyryloxymethoxycarbonyl-amino-7-oxo-6,7-dihydro-2,3,5,6-tetraaza-benzo[cd]azulen-2-yl)-4-methyl-tetrahydro-furan-3-yl ester]"
2,6 µg/mL,"Cc1oc(=O)oc1COC(=O)NC1=CC(=O)Nc2ncnc3c2c1cn3[C@@H]1O[C@H](COC(=O)C(C)C)[C@@H](OC(=O)C(C)C)C1(C)O (stereo in doubt) [Compound 119, Isobutyric acid 4-hydroxy-3-isobutyryloxy-4-methyl-5-[9-(5-methyl-2-oxo-[1,3]dioxol-4-ylmethoxycarbonylamino)-7-oxo-6,7-dihydro-2,3,5,6-tetraaza-benzo[cd]azulen-2-yl]-tetrahydro-furan-2-ylmethyl ester]"
3,51 µg/mL,"CC(C)C(=O)OCOC(=O)NC1=CC(=O)Nc2ncnc3c2c1cn3[C@@H]1O[C@H](CO)[C@@H](OC(=O)C(C)C)C1(C)O (stereo partly shown) [Compound 125, Isobutyric acid 4-hydroxy-2-hydroxymethyl-5-(9-isobutyryloxymethoxycarbonyl-amino-7-oxo-6,7-dihydro-2,3,5,6-tetraaza-benzo[cd]azulen-2-yl)-4-methyl-tetrahydro-furan-3-yl ester]"
4,40 µg/mL,"Cc1oc(=O)oc1COC(=O)NC1=CC(=O)Nc2ncnc3c2c1cn3[C@@H]1O[C@H](CO)[C@@H](O)C1(C)O (stereo partly shown) [Compound 126, [2-(3,4-Dihydroxy-5-hydroxymethyl-3-methyl-tetrahydro-furan-2-yl)-7-oxo-6,7-dihydro-2H-2,3,5,6-tetraaza-benzo[cd]azulen-9-yl]-carbamic acid5-methyl-2-oxo-[1,3]dioxol-4-ylmethyl ester]"
5,44 µg/mL,"CC(C)C(=O)OC[C@H]1O[C@@H](n2cc3c4c(ncnc42)NC(=O)C=C3N)C(C)(OC(=O)C(C)C)[C@@H]1OC(=O)C(C)C (stereo partly shown) [Compound 132, Isobutyric acid 5-(9-amino-7-oxo-6,7-dihydro-2,3,5,6-tetraaza-benzo[cd]azulen-2-yl)-3,4-bis-isobutyryloxy-4-methyl-tetrahydro-furan-2-ylmethyl ester]"
